For one experiment, the target named is T1, G2019S LRRK2 (Homo sapiens, UniProt Q5S007, G2019S).
T1 construct: expressed in transfected cells; host or cells: HEK293 (ATCC CRL-1573), transient transfection, ubiquitin promoter
The experiment in a line: LRRK2 degradation assay, G2019S LRRK2-HiBit expressed from plasmid in HEK293 cells. The format is cell-based. Particulars: HEK293 cells transfected with HiBit-tagged G2019S LRRK2, 24 hours compound incubation. The protocol:
(§1) The assay measures the degradation of wildtype and G2019S LRRK2 tagged with a HiBit tag on the C-terminus of the protein that was expressed from a mammalian expression vector, driven by the ubiquitin promoter in HEK293 cells. Each compound dose-response was repeated on two separate days, on three separate plates each day.
(§2) Plasmid Preparation. Transfection mixes were assembled as follows and incubated for 30 minutes at room temperature. In a 15 mL tube, 5.25 mL Opti-MEM (no additions) was mixed with 17 μL Firefly Luciferase plasmid at 1 μg/μL and 158 μL WT plasmid DNA at 1 μg/μL (175 μg total DNA) were mixed by flicking. In a new 15 mL tube, 5.25 mL OptiMEM was mixed with 17 μL Firefly Luciferase plasmid at 1 μg/μL and 158 μL G2019S plasmid DNA at 1 μg/μL (175 μg total DNA) were mixed by flicking. X-tremeGene HP was mixed thoroughly using a vortex. Next, 175 μL was added to each tube and flicked to mix. Both tubes were left to incubate for 30 minutes at room temperature.
(§3) While the transfection mixes were incubating, HEK293 cells (acquired from ATCC; ATCC CRL-1573) were harvested with trypsin. Once cells are detached, the cells were resuspended in 12 mL OptiMEM+5% FBS and transferred to a 50 mL tube. The cells were mixed well and counted. Using OptiMEM+5% FBS, the cells were diluted in two 250 mL conical tubes at 0.71×10^6 cells/mL in 70 mL. One tube was labeled “WT” and the other “G2019S”. The WT and G2019S transfection mixes were added dropwise to the corresponding 250 mL tubes. The tubes were mixed first by pipetting then by swirling. The tubes were incubated at room temperature for at least 5 minutes.
(§4) Each tube was swirled before dispensing and after every three plates. Seventy microliters of cells were dispensed with WT or G2019S DNA to seven plates each. Three plates of each were tested with compound plate one (preparation described below) and three plates of each were tested with compound plate two (preparation described below). The first plate from each set served as a “prime” plate and was not used to test compounds. Each plate was incubated in the hood for 10 minutes before placing in the 37° C. incubator for 24 hours.
(§5) Preparation of Compound and Assay Plates. Two compound plates were made using 96 well polypropylene plates. Compounds were made up at 10 mM and were diluted to 1 mM in 30 μL. Each dose response curve included a well of DMSO, as a negative control and for normalization, and a well of 0.5 μM of Exemplary Compound 4 as a positive control. In addition to seven test compounds, each plate also included a dose response of Exemplary Compound 4. The compound plates were spun down along at 1200 rpm for 2 minutes.
(§6) The two compound plates were then mixed and 2 μL was diluted in intermediate plates having 248 μL of Opti-Mem in each well. Next, 10 μL diluted compounds from the intermediate plates were added to each test plate (three WT and three G2019S plates per compound plate for a total of 12 assay plates). The plates were incubated for 24 hours at 37° C.
(§7) All assay plates and all Nano-Glo Dual-Luciferase Reporter Assay System components (except for the DLR substrate) were equilibrated to room temperature. Next, the luciferase buffer was mixed with the lyophilized amber bottle until fully dissolved, and 75 μL of the luciferase mixture was added to each well of each assay plate. The assay plates were incubated for 10 minutes at room temperature with shaking for at least 5 minutes, and then read on a plate reader.
(§8) Developing Plates and Analyzing Data. One milliliter of DLR substrate and 1 mL LgBiT Protein were added to the Stop and Glo buffer, and 75 μL of the mixture was added to each well of each plate. Optically clear seals were added to each plate and each plate was incubated for 20 minutes with shaking for at least 10 minutes, and then read on a plate reader. […]

A further experiment concerns the target T2, wildtype LRRK2 (Homo sapiens, UniProt Q5S007).
T2 construct: expressed in transfected cells; host or cells: HEK293 (ATCC CRL-1573), transient transfection, ubiquitin promoter
The experiment in a line: LRRK2 degradation assay, wildtype LRRK2-HiBit expressed from plasmid in HEK293 cells. The format is cell-based. Particulars: HEK293 cells transfected with HiBit-tagged wildtype LRRK2, 24 hours compound incubation; for Dmax: read-out: **WT Dmax (%); for DC50: read-out: *WT DC50. The protocol:
as §1, §2, §3, §4, §5, §6, §7, §8

T1 sequence (Q5S007 whole entry G2019S): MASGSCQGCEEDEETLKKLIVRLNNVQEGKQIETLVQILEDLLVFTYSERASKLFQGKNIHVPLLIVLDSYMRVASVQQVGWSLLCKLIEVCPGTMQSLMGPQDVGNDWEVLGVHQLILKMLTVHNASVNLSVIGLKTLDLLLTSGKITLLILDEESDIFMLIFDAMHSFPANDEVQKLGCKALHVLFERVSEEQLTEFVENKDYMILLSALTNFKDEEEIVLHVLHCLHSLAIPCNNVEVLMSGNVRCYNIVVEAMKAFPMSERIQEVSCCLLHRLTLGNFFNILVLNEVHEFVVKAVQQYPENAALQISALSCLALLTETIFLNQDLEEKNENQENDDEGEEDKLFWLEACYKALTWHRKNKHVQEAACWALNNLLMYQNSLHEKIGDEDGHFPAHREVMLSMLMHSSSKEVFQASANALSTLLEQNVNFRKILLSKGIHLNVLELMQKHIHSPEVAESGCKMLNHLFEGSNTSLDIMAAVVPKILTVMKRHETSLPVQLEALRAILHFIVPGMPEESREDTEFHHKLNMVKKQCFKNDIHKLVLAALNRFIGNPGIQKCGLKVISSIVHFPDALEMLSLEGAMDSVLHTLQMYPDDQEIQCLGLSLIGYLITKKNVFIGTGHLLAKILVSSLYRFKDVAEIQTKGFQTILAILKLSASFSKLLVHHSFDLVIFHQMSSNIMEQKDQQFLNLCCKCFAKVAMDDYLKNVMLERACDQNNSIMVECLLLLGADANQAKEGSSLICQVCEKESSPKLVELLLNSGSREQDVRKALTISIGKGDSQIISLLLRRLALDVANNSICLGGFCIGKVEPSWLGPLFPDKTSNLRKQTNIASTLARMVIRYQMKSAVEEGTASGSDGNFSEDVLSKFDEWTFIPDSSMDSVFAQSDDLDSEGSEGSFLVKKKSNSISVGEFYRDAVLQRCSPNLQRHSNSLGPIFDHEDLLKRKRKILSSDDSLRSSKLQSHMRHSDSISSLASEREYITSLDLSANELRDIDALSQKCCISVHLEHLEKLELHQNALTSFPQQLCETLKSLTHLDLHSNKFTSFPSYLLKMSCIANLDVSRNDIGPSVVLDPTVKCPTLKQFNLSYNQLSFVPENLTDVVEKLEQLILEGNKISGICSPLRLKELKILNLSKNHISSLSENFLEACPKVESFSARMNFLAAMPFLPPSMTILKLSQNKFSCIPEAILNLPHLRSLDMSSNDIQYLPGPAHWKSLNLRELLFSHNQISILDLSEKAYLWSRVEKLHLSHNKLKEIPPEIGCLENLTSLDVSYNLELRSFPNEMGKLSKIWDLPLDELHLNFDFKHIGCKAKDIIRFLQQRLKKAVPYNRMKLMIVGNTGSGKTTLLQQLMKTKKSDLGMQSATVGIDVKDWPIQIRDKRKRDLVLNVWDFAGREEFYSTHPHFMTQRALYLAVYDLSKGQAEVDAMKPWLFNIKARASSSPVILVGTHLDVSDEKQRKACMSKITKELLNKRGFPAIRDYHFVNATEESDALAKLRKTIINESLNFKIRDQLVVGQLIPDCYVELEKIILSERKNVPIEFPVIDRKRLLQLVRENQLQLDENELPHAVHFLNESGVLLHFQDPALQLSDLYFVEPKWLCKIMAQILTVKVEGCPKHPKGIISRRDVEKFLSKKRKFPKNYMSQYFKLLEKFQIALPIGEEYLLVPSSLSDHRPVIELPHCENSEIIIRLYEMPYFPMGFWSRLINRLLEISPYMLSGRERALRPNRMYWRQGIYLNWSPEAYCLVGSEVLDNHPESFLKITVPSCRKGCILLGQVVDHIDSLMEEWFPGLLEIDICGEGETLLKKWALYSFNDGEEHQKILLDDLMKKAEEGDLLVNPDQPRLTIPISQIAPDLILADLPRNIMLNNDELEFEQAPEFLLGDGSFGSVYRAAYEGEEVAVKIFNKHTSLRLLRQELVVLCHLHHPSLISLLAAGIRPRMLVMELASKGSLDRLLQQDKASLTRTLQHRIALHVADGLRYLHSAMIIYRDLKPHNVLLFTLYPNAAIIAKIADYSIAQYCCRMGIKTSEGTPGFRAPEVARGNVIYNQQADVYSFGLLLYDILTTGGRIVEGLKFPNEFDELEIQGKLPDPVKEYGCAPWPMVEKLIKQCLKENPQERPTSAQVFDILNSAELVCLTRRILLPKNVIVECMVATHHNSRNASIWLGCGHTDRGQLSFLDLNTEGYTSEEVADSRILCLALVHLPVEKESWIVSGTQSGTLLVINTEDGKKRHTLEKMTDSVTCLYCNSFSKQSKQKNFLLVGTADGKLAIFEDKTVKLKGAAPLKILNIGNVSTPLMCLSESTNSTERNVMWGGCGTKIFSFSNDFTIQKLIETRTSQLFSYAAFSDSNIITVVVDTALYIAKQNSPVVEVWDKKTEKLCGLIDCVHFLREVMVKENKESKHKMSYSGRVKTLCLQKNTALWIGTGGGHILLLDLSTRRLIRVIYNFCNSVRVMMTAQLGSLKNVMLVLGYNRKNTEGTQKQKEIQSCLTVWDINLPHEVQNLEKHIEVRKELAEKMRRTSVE
T2 sequence (Q5S007 whole entry): as the sequence (Q5S007 whole entry G2019S) above, with S2019G counted along it

At G2019S LRRK2, `CC(C)Oc1ccc2[nH]nc(-c3cc(N4C[C@@H](C)N(CCOCCOCCOCCOc5ccc6c(c5)C(=O)N(C5CCC(=O)NC5=O)C6=O)[C@@H](C)C4)ncn3)c2c1` (stereo partly drawn) [compound 10, 5-{2-[2-(2-{2-[(2R,6S)-2,6-dimethyl-4-{6-[5-(propan-2-yloxy)-1H-indazol-3-yl]pyrimidin-4-yl}piperazin-1-yl]ethoxy}ethoxy)ethoxy]ethoxy}-2-(2,6-dioxopiperidin-3-yl)-2,3-dihydro-1H-isoindole-1,3-dione] gave a DC50 of 10 to 50 nM and a Dmax of 50 to 70%. For the same compound, on wildtype LRRK2, the Dmax lay within 50 to 70% and the DC50 was in the range of 10 to 50 nM.
At G2019S LRRK2, `C[C@H]1CN(c2cc(-c3n[nH]c4ccc(OC(C)(C)C)cc34)ncn2)CCN1CCOCCOCCOCCOc1ccc2c(c1)C(=O)N(C1CCC(=O)NC1=O)C2=O` (stereo partly drawn) [compound 16, 5-{2-[2-(2-{2-[(2S)-4-{6-[5-(tert-butoxy)-1H-indazol-3-yl]pyrimidin-4-yl}-2-methylpiperazin-1-yl]ethoxy}ethoxy)ethoxy]ethoxy}-2-(2,6-dioxopiperidin-3-yl)-2,3-dihydro-1H-isoindole-1,3-dione] displayed a DC50 of at least 100 nM and a Dmax below 50%. Also, on wildtype LRRK2, the Dmax was below 50% and the DC50 was at least 100 nM.
Consider `C[C@@H]1CN(c2cc(-c3n[nH]c4ccc(OC5(C)CC5)cc34)ncn2)C[C@H](C)N1CCOCCN1CCN(c2ccc3c(c2)C(=O)N(C2CCC(=O)NC2=O)C3=O)CC1` (stereo partly drawn) [compound 21, 5-[4-(2-{2-[(2R,6S)-2,6-dimethyl-4-{6-[5-(1-methylcyclopropoxy)-1H-indazol-3-yl]pyrimidin-4-yl}piperazin-1-yl]ethoxy}ethyl)piperazin-1-yl]-2-(2,6-dioxopiperidin-3-yl)-2,3-dihydro-1H-isoindole-1,3-dione], for which, at G2019S LRRK2, the DC50 is below 10 nM and the Dmax fell in the range of 50 to 70%. Further, on wildtype LRRK2, the Dmax is at least 70% and the DC50 was below 10 nM.
Consider `CC(C)Oc1ccc2[nH]nc(-c3cc(N4CCN(CCN5CC(OCCOc6ccc7c(c6)C(=O)N(C6CCC(=O)NC6=O)C7=O)C5)[C@@H](C)C4)ncn3)c2c1` (stereo partly drawn) [compound 32, 2-(2,6-dioxopiperidin-3-yl)-5-{2-[(1-{2-[(2S)-2-methyl-4-{6-[5-(propan-2-yloxy)-1H-indazol-3-yl]pyrimidin-4-yl}piperazin-1-yl]ethyl}azetidin-3-yl)oxy]ethoxy}-2,3-dihydro-1H-isoindole-1,3-dione], for which the DC50 on G2019S LRRK2 and at wildtype LRRK2 was at least 100 nM each time. In addition, the Dmax on G2019S LRRK2 and at wildtype LRRK2 was below 50% throughout.
At G2019S LRRK2, `C[C@H]1CN(c2cc(-c3n[nH]c4ccc(OC5(C)CC5)cc34)ncn2)CCN1CCOCCOCCOc1ccc2c(c1)C(=O)N(C1CCC(=O)NC1=O)C2=O` (stereo partly drawn) [compound 3, 2-(2,6-dioxopiperidin-3-yl)-5-[2-(2-{2-[(2S)-2-methyl-4-{6-[5-(1-methylcyclopropoxy)-1H-indazol-3-yl]pyrimidin-4-yl}piperazin-1-yl]ethoxy}ethoxy)ethoxy]-2,3-dihydro-1H-isoindole-1,3-dione] registered a DC50 of 10 to 50 nM and a Dmax of 50 to 70%. In addition, on wildtype LRRK2, the Dmax was at least 70% and the DC50 is below 10 nM.
As to `CC(C)Oc1ccc2[nH]nc(-c3cc(N4CCN(CCCN(C)CCCN5CCN(c6ccc7c(c6)C(=O)N(C6CCC(=O)NC6=O)C7=O)CC5)[C@@H](C)C4)ncn3)c2c1` (stereo partly drawn) [compound 38, 2-(2,6-dioxopiperidin-3-yl)-5-(4-{3-[methyl({3-[(2S)-2-methyl-4-{6-[5-(propan-2-yloxy)-1H-indazol-3-yl]pyrimidin-4-yl}piperazin-1-yl]propyl})amino]propyl}piperazin-1-yl)-2,3-dihydro-1H-isoindole-1,3-dione], on G2019S LRRK2, the DC50 is at least 100 nM and the Dmax is at least 70%. Further, on wildtype LRRK2, the Dmax was at least 70% and the DC50 lay within 50 to 100 nM.
Take `CC(C)Oc1ccc2[nH]nc(-c3cc(N4CCN(CCN5CC(C6CCN(c7ccc8c(c7)C(=O)N(C7CCC(=O)NC7=O)C8=O)CC6)C5)CC4)ncn3)c2c1` (stereo not drawn) [compound 44, 2-(2,6-dioxopiperidin-3-yl)-5-(4-(1-(2-(4-(6-(5-isopropoxy-1H-indazol-3-yl)pyrimidin-4-yl)piperazin-1-yl)ethyl)azetidin-3-yl)piperidin-1-yl)isoindoline-1,3-dione]: the DC50 on G2019S LRRK2 and on wildtype LRRK2 was 10 to 50 nM in each case. The Dmax at G2019S LRRK2 and at wildtype LRRK2 was 50 to 70% each time.
Consider `CC(C)Oc1ccc2[nH]nc(-c3cc(N4CCN(CCN5CCC(CC6CCN(c7ccc8c(c7)C(=O)N(C7CCC(=O)NC7=O)C8=O)CC6)CC5)CC4)ncn3)c2c1` (stereo not drawn) [compound 51, 2-(2,6-dioxopiperidin-3-yl)-5-(4-((1-(2-(4-(6-(5-isopropoxy-1H-indazol-3-yl)pyrimidin-4-yl)piperazin-1-yl)ethyl)piperidin-4-yl)methyl)piperidin-1-yl)isoindoline-1,3-dione], for which, on G2019S LRRK2, the DC50 lay within 10 to 50 nM and the Dmax is 50 to 70%. Further, on wildtype LRRK2, the Dmax fell in the range of 50 to 70% and the DC50 lay in the range of 10 to 50 nM.
As for `CC(C)Oc1ccc2[nH]nc(-c3cc(N4CCN(CCN5CCC(CN6CCN(c7ccc8c(c7)CN(C7CCC(=O)NC7=O)C8=O)CC6)CC5)[C@@H](C)C4)ncn3)c2c1` (stereo partly drawn) [compound 31, 3-(5-{4-[(1-{2-[(2S)-2-methyl-4-{6-[5-(propan-2-yloxy)-1H-indazol-3-yl]pyrimidin-4-yl}piperazin-1-yl]ethyl}piperidin-4-yl)methyl]piperazin-1-yl}-1-oxo-2,3-dihydro-1H-isoindol-2-yl)piperidine-2,6-dione], at G2019S LRRK2, the DC50 is 10 to 50 nM and the Dmax was at least 70%. Also, on wildtype LRRK2, the Dmax was at least 70% and the DC50 was below 10 nM.
As to `C[C@H]1CN(c2cc(-c3n[nH]c4ccc(OC5(C)CC5)cc34)ncn2)CCN1CCOCCOCCOCCOCCOc1ccc2c(c1)C(=O)N(C1CCC(=O)NC1=O)C2=O` (stereo partly drawn) [compound 5, 2-(2,6-dioxopiperidin-3-yl)-5-({14-[(2S)-2-methyl-4-{6-[5-(1-methylcyclopropoxy)-1H-indazol-3-yl]pyrimidin-4-yl}piperazin-1-yl]-3,6,9,12-tetraoxatetradecan-1-yl}oxy)-2,3-dihydro-1H-isoindole-1,3-dione], on G2019S LRRK2, the DC50 was 10 to 50 nM and the Dmax is at least 70%. Besides, on wildtype LRRK2, the Dmax was at least 70% and the DC50 lay in the range of 10 to 50 nM.
Regarding `C[C@H]1CN(c2cc(-c3n[nH]c4ccc(OC5(C)CC5)cc34)ncn2)CCN1CCOCCOCCOCCOc1ccc(C(=O)NC2CCC(=O)NC2=O)c(F)c1` (stereo partly drawn) [compound 13, N-(2,6-dioxopiperidin-3-yl)-2-fluoro-4-{2-[2-(2-{2-[(2S)-2-methyl-4-{6-[5-(1-methylcyclopropoxy)-1H-indazol-3-yl]pyrimidin-4-yl}piperazin-1-yl]ethoxy}ethoxy)ethoxy]ethoxy}benzamide], on G2019S LRRK2, the DC50 was in the range of 10 to 50 nM and the Dmax is below 50%. Besides, at wildtype LRRK2, the Dmax is below 50% and the DC50 lay in the range of 10 to 50 nM.
For the compound `CC(C)Oc1ccc2[nH]nc(-c3cc(N4CCN(CCOCCOCCOCCOc5ccc6c(c5)C(=O)N(C5CCC(=O)NC5=O)C6=O)[C@@H](C)C4)ncn3)c2c1` (stereo partly drawn) [compound 9, 2-(2,6-dioxopiperidin-3-yl)-5-{2-[2-(2-{2-[(2S)-2-methyl-4-{6-[5-(propan-2-yloxy)-1H-indazol-3-yl]pyrimidin-4-yl}piperazin-1-yl]ethoxy}ethoxy)ethoxy]ethoxy}-2,3-dihydro-1H-isoindole-1,3-dione], at G2019S LRRK2, the DC50 is at least 100 nM and the Dmax is below 50%. On wildtype LRRK2, the Dmax was below 50% and the DC50 was at least 100 nM.
